Test results from ChEMBL document CHEMBL1201862, “PubChem BioAssay data set” (2004).
Activity calls are given as the source filed them.

Tests used:
[1] = target: Mitogen-activated protein kinase 10 (Homo sapiens, UniProt P53779); assay: Dose response biochemical screening assay for inhibitors of c-Jun N-Terminal Kinase 3 (JNK3). [Related pubchem assays: 746 ]
[2] = target: DNA dC->dU-editing enzyme APOBEC-3A (Homo sapiens, UniProt P31941); assay: Dose Response confirmation of small molecule APOBEC3A DNA Deaminase Inhibitors via a fluorescence-based single-stranded DNA deaminase assay. [Related pubchem assays (depositor defined):AID493011, AID493024]; type: functional
[3] = target: DNA dC->dU-editing enzyme APOBEC-3G (Homo sapiens, UniProt Q9HC16); type: functional;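 further: Dose-response counterscreen measuring inhibition of APOBEC3G DNA deaminase activity, run while confirming APOBEC3A inhibitors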
[4] = target: Neuropeptide Y receptor type 2 (Homo sapiens, UniProt P49146); assay: NPY-Y2 antagonist potency, selectivity check, dose response, counter-screen for NPY-Y1 antagonist project, cell-based (AID 1278); type: functional
Chain of Neuropeptide Y receptor type 2 (P49146 whole entry): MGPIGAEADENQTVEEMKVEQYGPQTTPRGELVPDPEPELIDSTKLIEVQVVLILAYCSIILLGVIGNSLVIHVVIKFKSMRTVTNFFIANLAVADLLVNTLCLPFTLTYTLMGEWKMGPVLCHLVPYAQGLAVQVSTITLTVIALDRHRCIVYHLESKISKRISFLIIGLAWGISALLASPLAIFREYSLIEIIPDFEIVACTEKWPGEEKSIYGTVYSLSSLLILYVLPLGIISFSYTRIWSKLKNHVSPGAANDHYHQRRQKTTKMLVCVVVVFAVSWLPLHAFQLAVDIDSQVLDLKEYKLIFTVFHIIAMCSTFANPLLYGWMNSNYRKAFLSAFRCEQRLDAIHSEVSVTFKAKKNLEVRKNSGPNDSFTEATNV

[5] = target: Sphingosine 1-phosphate receptor 3 (Homo sapiens, UniProt Q99500); assay: Dose Response Cell-Based Assay for Agonists of the Sphingosine 1-Phosphate Receptor 3 (S1P3): Purchased Analogues. [Related pubchem assays: 373, 439 ]; type: functional
[6] = target: Sphingosine 1-phosphate receptor 1 (Homo sapiens, UniProt P21453); assay: Dose Response Cell-Based Assay for Agonists of the Sphingosine 1-Phosphate Receptor 1 (S1P1): Purchased Analogues. [Related pubchem assays: 1192, 373, 439 ]; type: functional
Chain of Sphingosine 1-phosphate receptor 1 (P21453 whole entry): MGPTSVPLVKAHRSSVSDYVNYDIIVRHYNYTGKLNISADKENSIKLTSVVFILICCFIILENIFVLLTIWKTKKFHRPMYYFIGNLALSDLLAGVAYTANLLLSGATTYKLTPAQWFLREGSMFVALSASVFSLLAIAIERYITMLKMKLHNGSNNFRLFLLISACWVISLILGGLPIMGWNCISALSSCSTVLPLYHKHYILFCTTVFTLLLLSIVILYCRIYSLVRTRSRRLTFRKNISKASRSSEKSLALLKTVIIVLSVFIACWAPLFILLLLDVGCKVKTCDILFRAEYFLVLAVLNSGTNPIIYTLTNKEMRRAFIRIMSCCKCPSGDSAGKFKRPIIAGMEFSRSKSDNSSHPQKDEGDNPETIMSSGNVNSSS

[7] = target: Sphingosine 1-phosphate receptor 2 (Homo sapiens, UniProt O95136); assay: Dose Response Cell-Based Assay for Agonists of the Sphingosine 1-Phosphate Receptor 2 (S1P2): Purchased Analogues. [Related pubchem assays: 1192, 373, 439 ]; type: functional
Chain of Sphingosine 1-phosphate receptor 2 (O95136 whole entry): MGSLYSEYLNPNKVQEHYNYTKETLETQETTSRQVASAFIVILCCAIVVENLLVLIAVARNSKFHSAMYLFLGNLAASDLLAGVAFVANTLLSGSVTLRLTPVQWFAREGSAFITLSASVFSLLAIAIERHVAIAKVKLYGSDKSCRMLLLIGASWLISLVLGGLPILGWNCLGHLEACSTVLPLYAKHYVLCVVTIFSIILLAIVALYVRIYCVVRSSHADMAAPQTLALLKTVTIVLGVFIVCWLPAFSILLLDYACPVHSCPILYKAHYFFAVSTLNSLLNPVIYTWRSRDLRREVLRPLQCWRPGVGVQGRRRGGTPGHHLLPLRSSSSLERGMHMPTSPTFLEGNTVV

[8] = M. tuberculosis growth inhibition, HTS (AID 449762); type: functional
Protein Tat = Protein Tat (Human immunodeficiency virus type 1 group M subtype B (isolate HXB2)(HIV-1), UniProt P04608); type: functional;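 further: tat binding to TAR RNA read out by fluorescence polarization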
Galanin receptor type 2 = Galanin receptor type 2 (Homo sapiens, UniProt O43603); assay: Dose Response cell-based high-throughput screening assay to identify agonists of galanin receptor 2 (GALR2). [Related pubchem assays: 864 ]; type: functional
[9] = THP-1 cell cytotoxicity, dose response, cytotoxicity control for non-replicating M. tuberculosis project (AID 489025); type: functional
[10] = microbe, parasite or virus in culture; type: functional; conditions: Mycobacterium tuberculosis
[11] = Vero E6 cell cytotoxicity, dose response, cytotoxicity control for non-replicating M. tuberculosis project, secondary assay (AID 492998); type: functional, VeroE6; conditions: Vero C1008
cells = type: functional
[12] = target: Aryl hydrocarbon receptor (Homo sapiens, UniProt P35869); assay: Luminescence-based cell-based high throughput dose response assay for activators of the Aryl Hydrocarbon Receptor (AHR). [Related pubchem assays: 2796 (Primary screen (AHR activators in singlicate)), 2845 (Confirmation screen (AHR activators in triplicate)), 434939 (Counterscreen (PXR activators in triplicate)), 2804 (Summary (AHR activators))]; type: ADME
Chain of Aryl hydrocarbon receptor (P35869 whole entry): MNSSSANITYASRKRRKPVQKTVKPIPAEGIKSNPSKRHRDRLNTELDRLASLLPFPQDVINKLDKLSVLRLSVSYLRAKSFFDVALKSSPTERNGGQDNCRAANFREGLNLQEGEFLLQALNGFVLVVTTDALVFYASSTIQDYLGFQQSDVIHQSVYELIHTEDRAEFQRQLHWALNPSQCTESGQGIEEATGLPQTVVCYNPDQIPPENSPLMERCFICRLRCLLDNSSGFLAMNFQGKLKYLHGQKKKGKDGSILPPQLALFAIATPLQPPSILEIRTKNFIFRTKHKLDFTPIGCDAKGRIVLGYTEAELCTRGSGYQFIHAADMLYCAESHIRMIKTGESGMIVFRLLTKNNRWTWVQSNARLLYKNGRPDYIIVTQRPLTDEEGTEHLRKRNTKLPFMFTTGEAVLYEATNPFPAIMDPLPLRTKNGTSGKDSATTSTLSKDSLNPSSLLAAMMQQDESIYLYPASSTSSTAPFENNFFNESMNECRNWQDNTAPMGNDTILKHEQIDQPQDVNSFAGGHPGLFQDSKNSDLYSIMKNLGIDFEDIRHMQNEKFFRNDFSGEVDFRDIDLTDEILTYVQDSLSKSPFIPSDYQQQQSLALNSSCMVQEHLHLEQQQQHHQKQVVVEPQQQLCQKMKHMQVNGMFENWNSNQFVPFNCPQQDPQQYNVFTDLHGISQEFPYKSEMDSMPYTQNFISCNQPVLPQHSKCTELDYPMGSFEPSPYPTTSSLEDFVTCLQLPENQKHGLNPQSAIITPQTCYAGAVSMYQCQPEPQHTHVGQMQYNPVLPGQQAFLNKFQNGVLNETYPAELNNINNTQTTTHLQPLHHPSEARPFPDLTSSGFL

[13] = Luminescence Cell-Based Dose Confirmation HTS to Identify Inhibitors of Polyadenylation.; type: functional
Bcl-2-like protein 10 = target: T1, Bcl-2-like protein 10 (Homo sapiens, UniProt Q9HD36); assay: displacers of TR3 peptide from Bcl-B, primary screen, selectivity assay for Bfl-1 inhibitor project, biochemical, fluorescence polarization, FITC-TR3 peptide (AID 748);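 further: fluorescence polarization from a fluorescein-labelled TR3 peptide binding purified Bcl-B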
T1 sequence (Q9HD36 whole entry): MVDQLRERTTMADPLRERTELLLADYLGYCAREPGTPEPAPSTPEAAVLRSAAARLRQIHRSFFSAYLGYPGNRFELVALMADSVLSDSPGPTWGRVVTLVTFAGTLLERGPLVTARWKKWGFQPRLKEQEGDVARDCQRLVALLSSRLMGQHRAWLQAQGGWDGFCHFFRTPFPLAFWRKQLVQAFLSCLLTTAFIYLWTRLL

Estrogen receptor beta [14] = target: T2, Estrogen receptor beta (Homo sapiens, UniProt Q92731); assay: ERβ–SRC-3 coactivator interaction inhibitors, confirmation, orthogonal assay, biochemical, ELISA, streptavidin-HRP readout (AID 1060)
T2 sequence (Q92731 whole entry): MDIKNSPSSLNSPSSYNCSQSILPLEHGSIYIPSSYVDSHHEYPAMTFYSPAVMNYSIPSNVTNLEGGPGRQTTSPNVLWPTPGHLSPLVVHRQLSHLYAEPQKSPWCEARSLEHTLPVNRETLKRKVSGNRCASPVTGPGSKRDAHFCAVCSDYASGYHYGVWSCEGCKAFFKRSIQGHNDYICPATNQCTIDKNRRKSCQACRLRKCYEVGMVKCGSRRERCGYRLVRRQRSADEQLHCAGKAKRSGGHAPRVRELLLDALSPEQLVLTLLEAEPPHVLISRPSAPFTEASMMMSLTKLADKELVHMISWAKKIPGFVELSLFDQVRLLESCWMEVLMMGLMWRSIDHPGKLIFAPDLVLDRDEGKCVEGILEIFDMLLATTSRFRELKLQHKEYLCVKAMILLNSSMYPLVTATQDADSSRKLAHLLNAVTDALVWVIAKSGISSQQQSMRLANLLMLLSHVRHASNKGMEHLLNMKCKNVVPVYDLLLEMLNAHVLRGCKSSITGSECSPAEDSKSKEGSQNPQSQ

Estrogen receptor = target: T3, Estrogen receptor (Homo sapiens, UniProt P03372);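 further: potency for inhibiting coactivator peptide recruitment to the receptor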
T3 sequence (P03372 whole entry): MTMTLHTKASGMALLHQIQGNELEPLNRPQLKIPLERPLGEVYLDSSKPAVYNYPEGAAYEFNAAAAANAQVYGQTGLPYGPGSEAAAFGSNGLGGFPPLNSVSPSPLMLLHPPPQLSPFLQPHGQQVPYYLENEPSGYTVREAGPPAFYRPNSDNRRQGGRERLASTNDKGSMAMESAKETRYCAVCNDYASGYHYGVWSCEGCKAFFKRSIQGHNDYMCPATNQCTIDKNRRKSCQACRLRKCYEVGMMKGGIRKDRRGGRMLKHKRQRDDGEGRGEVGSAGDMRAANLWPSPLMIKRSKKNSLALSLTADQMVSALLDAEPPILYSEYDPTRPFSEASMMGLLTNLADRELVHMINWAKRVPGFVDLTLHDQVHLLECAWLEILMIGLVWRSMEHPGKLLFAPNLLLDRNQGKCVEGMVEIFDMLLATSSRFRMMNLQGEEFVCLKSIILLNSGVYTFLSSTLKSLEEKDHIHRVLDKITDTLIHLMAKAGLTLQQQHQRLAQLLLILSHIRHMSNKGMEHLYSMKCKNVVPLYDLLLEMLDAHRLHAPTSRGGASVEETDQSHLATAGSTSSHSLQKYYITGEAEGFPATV

Estrogen receptor beta [15] = target: T2, Estrogen receptor beta
[16] = target: Protein-tyrosine kinase 2-beta (Homo sapiens, UniProt Q14289);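 further: potency of inhibitors of PYK2 kinase phosphorylation of poly-GT substrate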
[17] = target: T4, Carboxy-terminal domain RNA polymerase II polypeptide A small phosphatase 1 (Homo sapiens, UniProt Q9GZU7); assay: inhibitors of CTDSP1, concentration-response testing, biochemical assay, absorbance-based, actives from ultra-high-throughput screening (AID 540297); type: functional
T4 sequence (Q9GZU7 whole entry): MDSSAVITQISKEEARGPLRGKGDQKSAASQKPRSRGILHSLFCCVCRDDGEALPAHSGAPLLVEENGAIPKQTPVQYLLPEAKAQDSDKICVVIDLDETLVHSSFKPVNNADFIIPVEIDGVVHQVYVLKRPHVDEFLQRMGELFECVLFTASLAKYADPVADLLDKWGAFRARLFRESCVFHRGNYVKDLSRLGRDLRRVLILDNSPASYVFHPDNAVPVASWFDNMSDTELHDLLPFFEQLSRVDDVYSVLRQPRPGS

[18] = target: Tyrosine-protein phosphatase non-receptor type 7 (Homo sapiens, UniProt P35236); assay: inhibitors of human HePTP phosphatase, […], biochemical, absorbance, leukemia target (AID 521); type: functional
Chain of Tyrosine-protein phosphatase non-receptor type 7 (P35236 whole entry): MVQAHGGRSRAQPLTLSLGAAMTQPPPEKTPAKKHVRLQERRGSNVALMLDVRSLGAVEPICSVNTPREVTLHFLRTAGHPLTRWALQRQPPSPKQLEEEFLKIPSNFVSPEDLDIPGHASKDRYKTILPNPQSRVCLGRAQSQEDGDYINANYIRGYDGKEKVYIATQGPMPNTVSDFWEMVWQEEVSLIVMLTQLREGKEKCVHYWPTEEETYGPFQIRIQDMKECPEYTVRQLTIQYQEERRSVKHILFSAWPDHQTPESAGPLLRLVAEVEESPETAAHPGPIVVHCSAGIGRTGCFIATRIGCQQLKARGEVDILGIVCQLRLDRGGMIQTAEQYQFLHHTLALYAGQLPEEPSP

Bcl-2-related protein A1 [19] = target: T5, Bcl-2-related protein A1 (Mus musculus, UniProt Q07440); assay: Bfl-1 inhibitors blocking BH3 peptide binding, confirmation, biochemical, TR-FRET, mouse Bfl-1 (AID 621);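 further: TR-FRET binding of GST-Bfl-1 to FITC-labelled Bid peptide via terbium antibody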
T5 sequence (Q07440 whole entry): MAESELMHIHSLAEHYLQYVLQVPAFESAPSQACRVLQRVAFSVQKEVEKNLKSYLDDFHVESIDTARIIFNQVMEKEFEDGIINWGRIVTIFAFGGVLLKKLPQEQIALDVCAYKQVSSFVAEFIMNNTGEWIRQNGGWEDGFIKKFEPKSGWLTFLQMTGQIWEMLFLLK

[20] = target: Dual specificity protein phosphatase 6 (Rattus norvegicus, UniProt Q64346); assay: MKP-3 phosphatase inhibitors, primary screen, biochemical, rat enzyme, in vitro (AID 425)
Chain of Dual specificity protein phosphatase 6 (Q64346 whole entry): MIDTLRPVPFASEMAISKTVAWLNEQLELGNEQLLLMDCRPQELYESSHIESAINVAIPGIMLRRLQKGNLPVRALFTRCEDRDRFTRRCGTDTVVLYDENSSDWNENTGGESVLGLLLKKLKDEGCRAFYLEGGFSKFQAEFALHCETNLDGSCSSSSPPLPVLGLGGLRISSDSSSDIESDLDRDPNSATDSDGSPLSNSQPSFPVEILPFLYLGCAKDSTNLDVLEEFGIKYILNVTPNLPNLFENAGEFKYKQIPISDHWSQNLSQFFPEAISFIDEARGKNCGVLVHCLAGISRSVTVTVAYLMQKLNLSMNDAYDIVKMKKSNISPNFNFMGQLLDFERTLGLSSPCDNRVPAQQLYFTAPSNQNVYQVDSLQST

Bcl-2-related protein A1 [21] = target: T5, Bcl-2-related protein A1; assay: Bfl-1 inhibitors, primary screen, biochemical, fluorescence polarization, FITC-Bid, mouse (AID 432)
[22] = target: Induced myeloid leukemia cell differentiation protein Mcl-1 (Homo sapiens, UniProt Q07820); assay: MCL1-BIM BH3 interaction inhibitors, dose response, biochemical, fluorescence polarization, BIM-BH3 peptide, 1536-well (AID 2217)
Caspase-6 = target: T6, Caspase-6 (Homo sapiens, UniProt P55212); assay: human caspase-6 inhibitors, dose response, biochemical, VEID-R110 fluorescence, cherry-pick (AID 720632)
T6 sequence (P55212 whole entry): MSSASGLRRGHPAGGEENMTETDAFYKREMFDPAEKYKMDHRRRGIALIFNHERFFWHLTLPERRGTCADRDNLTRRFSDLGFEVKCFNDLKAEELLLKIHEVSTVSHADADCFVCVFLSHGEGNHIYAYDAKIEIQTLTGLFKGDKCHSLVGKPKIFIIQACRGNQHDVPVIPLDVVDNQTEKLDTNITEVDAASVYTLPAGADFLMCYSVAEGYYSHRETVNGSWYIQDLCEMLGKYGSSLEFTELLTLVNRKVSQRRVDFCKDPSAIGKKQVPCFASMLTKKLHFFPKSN

Bcl-2-like protein 1 = Bcl-2-like protein 1 (Homo sapiens, UniProt Q07817); assay: BCL-XL inhibitors, dose response, selectivity assay for MCL1 inhibitor project, biochemical, fluorescence polarization, 1536-well (AID 2218)
[23] = target: Ubiquitin carboxyl-terminal hydrolase BAP1 (Homo sapiens, UniProt Q92560); assay: BAP1 deubiquitinase inhibitors, dose response, biochemical (AID 714); type: functional
Chain of Ubiquitin carboxyl-terminal hydrolase BAP1 (Q92560 whole entry): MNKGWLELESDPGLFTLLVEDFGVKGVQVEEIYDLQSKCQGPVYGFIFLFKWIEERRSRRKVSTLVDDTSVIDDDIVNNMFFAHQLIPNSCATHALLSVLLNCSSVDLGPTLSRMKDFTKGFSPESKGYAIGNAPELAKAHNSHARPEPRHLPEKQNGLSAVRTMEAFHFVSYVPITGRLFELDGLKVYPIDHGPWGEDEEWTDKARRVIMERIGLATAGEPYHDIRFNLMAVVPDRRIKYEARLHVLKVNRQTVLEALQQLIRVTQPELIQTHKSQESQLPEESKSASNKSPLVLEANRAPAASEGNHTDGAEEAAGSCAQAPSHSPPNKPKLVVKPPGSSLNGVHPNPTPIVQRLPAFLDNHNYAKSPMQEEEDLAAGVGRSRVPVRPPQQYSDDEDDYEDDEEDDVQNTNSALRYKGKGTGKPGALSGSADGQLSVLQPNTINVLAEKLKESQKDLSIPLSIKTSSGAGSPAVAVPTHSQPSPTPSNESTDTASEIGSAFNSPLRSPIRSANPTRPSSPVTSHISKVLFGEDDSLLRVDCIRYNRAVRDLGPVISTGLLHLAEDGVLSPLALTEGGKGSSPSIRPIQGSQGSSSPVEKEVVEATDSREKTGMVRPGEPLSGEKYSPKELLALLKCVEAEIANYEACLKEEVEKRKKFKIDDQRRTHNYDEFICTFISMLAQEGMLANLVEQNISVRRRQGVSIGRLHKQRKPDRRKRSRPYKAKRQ

[24] = target: Diphosphomevalonate decarboxylase (Streptococcus pneumoniae serotype 2 (strain D39 / NCTC 7466), UniProt Q9FD53); assay: S. pneumoniae DPM-DC inhibition retest, confirmation, biochemical, cuvette format, coupled NADH fluorescence (AID 1028); type: functional
[25] = target: Peroxisome proliferator-activated receptor gamma/Nuclear receptor corepressor 2 (Homo sapiens, UniProt P37231+Q9Y618); assay: Counterscreen for NR2E3 inverse agonists: TR-FRET-based biochemical high throughput dose response assay to identify inverse agonists of the interaction between peroxisome proliferator-activated receptor gamma (PPARg) and nuclear receptor co-repressor 2 (NCOR2).; type: functional
[26] = target: Tyrosine-protein phosphatase non-receptor type 22 (Homo sapiens, UniProt Q9Y2R2); assay: PTPN22 phosphatase inhibition, dose response, selectivity assay for STEP inhibitor project, biochemical (AID 624241); type: functional
Chain of Tyrosine-protein phosphatase non-receptor type 22 (Q9Y2R2 whole entry): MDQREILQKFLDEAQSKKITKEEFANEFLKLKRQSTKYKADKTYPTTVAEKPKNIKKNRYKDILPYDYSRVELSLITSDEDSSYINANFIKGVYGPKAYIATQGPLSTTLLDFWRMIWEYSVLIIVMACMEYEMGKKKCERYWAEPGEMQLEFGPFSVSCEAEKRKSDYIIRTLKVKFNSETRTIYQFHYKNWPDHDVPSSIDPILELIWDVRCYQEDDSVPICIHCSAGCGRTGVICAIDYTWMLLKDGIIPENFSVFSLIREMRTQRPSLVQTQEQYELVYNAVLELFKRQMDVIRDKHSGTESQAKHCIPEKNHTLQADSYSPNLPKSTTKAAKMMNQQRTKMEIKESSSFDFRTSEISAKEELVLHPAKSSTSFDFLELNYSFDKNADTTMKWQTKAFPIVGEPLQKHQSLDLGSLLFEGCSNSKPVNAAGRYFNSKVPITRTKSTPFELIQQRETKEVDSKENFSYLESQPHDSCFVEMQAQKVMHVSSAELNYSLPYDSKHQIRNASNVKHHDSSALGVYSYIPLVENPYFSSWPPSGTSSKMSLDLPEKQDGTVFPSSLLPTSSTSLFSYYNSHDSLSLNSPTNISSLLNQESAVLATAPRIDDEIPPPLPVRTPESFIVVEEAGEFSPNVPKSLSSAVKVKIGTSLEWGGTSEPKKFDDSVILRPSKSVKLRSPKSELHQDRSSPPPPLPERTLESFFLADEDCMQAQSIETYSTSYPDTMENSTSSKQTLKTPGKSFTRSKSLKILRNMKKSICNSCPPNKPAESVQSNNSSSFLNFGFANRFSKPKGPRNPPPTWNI

[27] = target: Photoreceptor-specific nuclear receptor (Homo sapiens, UniProt Q9Y5X4); assay: NR2E3 inverse agonists, dose response, biochemical, TR-FRET (AID 463256); type: functional
[28] = target: Dual specificity protein phosphatase 3 (Homo sapiens, UniProt P51452); assay: VHR phosphatase inhibition, dose response, selectivity assay for STEP inhibitor project, biochemical (AID 602374); type: functional; conditions: read-out: IC50_Mean
[29] = target: Tyrosine-protein phosphatase non-receptor type 11 (Homo sapiens, UniProt Q06124); assay: SHP2 phosphatase inhibition, dose response, selectivity assay for STEP inhibitor project, biochemical (AID 602367); type: functional; conditions: read-out: IC50_Mean
[30] = target: Tyrosine-protein phosphatase non-receptor type 5 (Homo sapiens, UniProt P54829); assay: STEP phosphatase inhibitors, confirmation, biochemical, fluorescence intensity, uHTS hits (AID 602372); type: functional; conditions: read-out: IC50_Mean

CC1(C)Oc2ccc3ccc(=O)oc3c2-c2c[nH]nc21
IC50 [1]: > 31 µM (not active) | IC50 [2]: 4.45 µM (active) | IC50 [3]: 5.7 µM (active)

CC(C)CC(c1nnnn1C1CCCC1)N1CCN(c2ccccc2F)CC1 (stereo not drawn)
IC50 [4]: 24.4 µM (not active)

Cc1ccc(-c2cc(C(=O)N(C)C3CCCCC3)no2)cc1
EC50 [5]: > 50 µM (not active) | EC50 [6]: 0.724 µM (active) | EC50 [7]: > 10 µM (not active)

Cc1cc(/C=C(/C#N)c2cccc(F)c2)c(C)n1-c1cccnc1
IC50 [8]: > 100 µM (active)

CCc1ccccc1N(CC(=O)NCCSCc1ccco1)S(C)(=O)=O
IC50 (Protein Tat): > 100 µM (active)

C=CCNC(=O)/C(C#N)=C/c1cn(-c2ccccc2)nc1-c1cccs1
EC50 (Galanin receptor type 2): 45.4 µM (not active)

O=[N+]([O-])c1cc(-c2nc(-c3ccncc3)no2)cc([N+](=O)[O-])c1
CC50 [9]: 37.5 µM (active) | CC50 [10]: > 40 µM (active) | CC50 [11]: > 20 µM (active) | IC50 (cells): 3.13 µM (active) | EC50 [12]: 2.67 µM (active)

COc1ccc(C2SCC(=O)N2c2c(C)n(C)n(-c3ccccc3)c2=O)cc1OC (stereo not drawn)
EC50 [13]: > 120 µM (not active)

Cc1ccc(S(=O)(=O)N2CCCCC2)cc1C(=O)Nc1nc[nH]n1
IC50 (Bcl-2-like protein 10): 27.7 µM (active) | IC50 (Estrogen receptor beta [14]): > 109 µM (not active) | IC50 (Estrogen receptor): > 50 µM (not active) | IC50 (Estrogen receptor beta [15]): 8.84 µM (active)

COc1ccc2nc(O)c(-c3noc(-c4ccccc4)n3)cc2c1
IC50 [16]: > 2.57 µM (not active) | IC50 [17]: 7.01 µM (active) | IC50 [18]: 4.23 µM (active) | IC50 (Bcl-2-related protein A1 [19]): > 100 µM (not active) | IC50 [20]: > 10 µM (not active) | IC50 (Bcl-2-related protein A1 [21]): 24.6 µM (active)

Nc1ccc(S(=O)(=O)Nc2nc3ccccc3o2)cc1
IC50 [22]: > 109 µM (not active) | AC50 (Caspase-6): 42.1 µM (active) | IC50 (Bcl-2-like protein 1): > 109 µM (not active)

Cc1sc(NC(=O)CSc2nnc(-c3ccc(F)cc3)o2)c(C#N)c1C
IC50 (Estrogen receptor): > 50 µM (not active) | IC50 [23]: 10.5 µM (active)

O=C(NCc1ccco1)c1cccc(-n2sc3ccccc3c2=O)c1
IC50 [24]: 10.5 µM (active)

COc1ccc(-c2ccc(NC(=O)c3ccc(Br)o3)cc2)nn1
IC50 [25]: 4.7 µM (active) | IC50 [26]: 74.1 µM (inactive) | IC50 [27]: 3.38 µM (active) | IC50 [28]: 6.6 µM (active) | IC50 [29]: 4.3 µM (active) | IC50 [30]: 18 µM (active)
